Patent US9630961B2, “Arginine methyltransferase inhibitors and uses thereof” (Epizyme, Inc., priority 2013, dated 2017)
pIC50: −log10 of the molar value.

molecular target: T1, PRMT8 (Homo sapiens, UniProt Q9NR22); assay: PRMT8 Biochemical Assay (3H-SAM Flashplate, peptide substrate); settings: 30 min preincubation, room temperature
T1 construct: Full-length human PRMT8 (NM_019854.4) isoform 1 transcript clone; made in house; host or cells: E. coli BL21(DE3) Gold
Excerpt: S-adenosylmethionine (SAM), S-adenosylhomocysteine (SAH), bicine, Tween20, dimethylsulfoxide (DMSO), bovine skin gelatin (BSG), isopropyl-β-D-thiogalactopyranoside (IPTG), and Tris(2-carboxyethyl)phosphine hydrochloride solution (TCEP) were purchased from Sigma-Aldrich at the highest level of purity possible. ^3H-SAM was purchase from American Radiolabeled Chemicals with a specific activity of 80 Ci/mmol. 384-well streptavidin Flashplates were purchased from PerkinElmer.
Peptide representative of human histone H4 residues 31-45 was synthesized with an N-terminal linker-affinity tag motif and a C-terminal amide cap by 21st Century Biochemicals. The peptide was purified by high-performance liquid chromatography (HPLC) to greater than 95% purity and confirmed by liquid chromatography mass spectrometry (LC-MS). The sequence was Biot-Ahx-[…]-amide (SEQ ID NO.:8).
The resulting construct encodes an N-terminal GST tag and a thrombin cleavage sequence ([…] […] […] […]) (SEQ ID NO.:9) fused directly to Met 1 of PRMT8.
E. coli (BL21(DE3) Gold, Stratagene) made competent by the CaCl2 method were transformed with the PRMT8 construct and ampicillin selection. Protein over-expression was accomplished by growing the PRMT8 expressing E. coli clone and inducing expression with 0.3 mM IPTG at 16° C. The culture was grown for 12 hours, harvested by centrifugation, and stored at −80° C. for purification.
The column was washed with 50 mM phosphate buffer, 100 mM NaCl, 5% glycerol, 5 mM (3-mercaptoethanol, pH 7.8 and PRMT8 was eluted by 100 mM phosphate in the same buffer. Protein was concentrated and buffer was exchanged to 50 mM Tris, 300 mM NaCl, 10% glycerol, 5 mM β-mercaptoethanol, pH 7.8 by ultrafiltration. The purity of recovered protein was 89%.
General Procedure for PRMT8 Enzyme Assays on Peptide Substrates.
The assays were all performed in a buffer consisting of 20 mM Bicine (pH=7.6), 1 mM TCEP, 0.005% BSG, and 0.002% Tween 20, prepared on the day of use. Compounds in 100% DMSO (1 ul) were spotted into a polypropylene 384-well V-bottom plates (Greiner) using a Platemate Plus outfitted with a 384-channel head (Thermo Scientific). DMSO (1 ul) was added to Columns 11, 12, 23, 24, rows A-H for the maximum signal control and 1 ul of SAH, a known product and inhibitor of PRMT8, was added to columns 11, 12, 23, 24, rows I-P for the minimum signal control. A cocktail (40 ul) containing the PRMT8 enzyme was added by Multidrop Combi (Thermo-Fisher). The compounds were allowed to incubate with PRMT8 for 30 min at room temperature, then a cocktail (10 ul) containing ^3H-SAM and peptide was added to initiate the reaction (final volume=51 ul). The final concentrations of the components were as follows: PRMT8 was 1.5 nM, ^3H-SAM was 50 nM, non-radiolabeled SAM was 550 nM, peptide was 150 nM, SAH in the minimum signal control wells was 1 mM, and the DMSO concentration was 2%. The assays were stopped by the addition of non-radiolabeled SAM (10 ul) to a final concentration of 400 uM, which dilutes the ^3H-SAM to a level where its incorporation into the peptide substrate is no longer detectable. 50 ul of the reaction in the 384-well polypropylene plate was then transferred to a 384-well Flashplate and the biotinylated peptides were allowed to bind to the streptavidin surface for at least 1 hour before being washed once with 0.1% Tween20 in a Biotek ELx405 plate washer. The plates were then read in a PerkinElmer TopCount plate reader to measure the quantity of ^3H-labeled peptide bound to the Flashplate surface, measured as disintegrations per minute (dpm) or alternatively, referred to as counts per minute (cpm).
Where dpm=disintegrations per minute, cmpd=signal in assay well, and min and max are the respective minimum and maximum signal controls.
Where top and bottom are the normally allowed to float, but may be fixed at 100 or 0 respectively in a 3-parameter fit. […]

T1 sequence (Q9NR22 whole entry, canonical isoform): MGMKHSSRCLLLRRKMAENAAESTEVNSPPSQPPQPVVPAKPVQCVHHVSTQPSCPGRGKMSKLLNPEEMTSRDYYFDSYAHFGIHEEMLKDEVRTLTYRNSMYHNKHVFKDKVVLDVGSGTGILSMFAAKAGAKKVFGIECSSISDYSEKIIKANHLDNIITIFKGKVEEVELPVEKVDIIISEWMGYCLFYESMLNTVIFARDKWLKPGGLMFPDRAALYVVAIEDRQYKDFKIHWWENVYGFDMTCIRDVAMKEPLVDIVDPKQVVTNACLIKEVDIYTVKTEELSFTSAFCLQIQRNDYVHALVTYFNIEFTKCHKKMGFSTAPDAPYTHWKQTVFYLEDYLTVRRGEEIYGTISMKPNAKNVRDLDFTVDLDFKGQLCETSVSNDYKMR

Q: With `CN(CCN)Cc1c[nH]nc1-c1ccsc1` [Compound 3] as the compound, how does the pIC50 read?
A: 5.52 to 6.00

Q: `CN(CCN)Cc1c[nH]nc1-c1cncnc1` [Compound 4] was tested. Which pIC50 did it give?
A: 5.52 to 6.00

Q: How did the pIC50 turn out when `CN(CCN)Cc1c[nH]nc1-c1cccs1` [Compound 5] was run?
A: 5.00 to 5.52

Q: `CN(CCN)Cc1c[nH]nc1-c1ccco1` [Compound 6] was tested. Which pIC50 did it give?
A: 5.00 to 5.52

Q: `CN(CCN)Cc1c[nH]nc1-c1ccoc1` [Compound 7] was tested. Which pIC50 did it give?
A: 5.52 to 6.00

Q: How did the pIC50 turn out when `CN(CCN)Cc1c[nH]nc1-c1cnn(C)c1` [Compound 8] was run?
A: 5.00 to 5.52

Q: `CN(CCN)Cc1c[nH]nc1-c1ccc2scnc2c1` [Compound 9] was tested. Which pIC50 did it give?
A: 6.00 to 7.00

Q: With `Cc1noc(C)c1-c1n[nH]cc1CN(C)CCN` [Compound 10] as the compound, how does the pIC50 read?
A: ≤ 5.00

Q: With `COc1ncc(-c2n[nH]cc2CN(C)CCN)cn1` [Compound 11] as the compound, how does the pIC50 read?
A: 5.52 to 6.00

Q: With `CN(CCN)Cc1c[nH]nc1-c1cn[nH]c1` [Compound 12] as the compound, how does the pIC50 read?
A: 5.52 to 6.00

Q: `CN(CCN)Cc1c[nH]nc1-c1cnc2[nH]ccc2c1` [Compound 13] was tested. Which pIC50 did it give?
A: 6.00 to 7.00

Q: `CN(CCN)Cc1c[nH]nc1-c1cc[nH]n1` [Compound 14] was tested. Which pIC50 did it give?
A: ≤ 5.00

Q: `CN(CCN)Cc1c[nH]nc1-c1ccnn1C` [Compound 15] was tested. Which pIC50 did it give?
A: 5.00 to 5.52

Q: How did the pIC50 turn out when `CCn1cc(-c2n[nH]cc2CN(C)CCN)cn1` [Compound 16] was run?
A: 6.00 to 7.00

Q: How did the pIC50 turn out when `CN(CCN)Cc1c[nH]nc1-c1cnn(-c2ccccc2)c1` [Compound 17] was run?
A: 6.00 to 7.00

Q: With `CN(CCN)Cc1c[nH]nc1-c1cnn(CCO)c1` [Compound 18] as the compound, how does the pIC50 read?
A: 5.52 to 6.00

Q: With `CN(CCN)Cc1c[nH]nc1-c1ccc2cnn(C)c2c1` [Compound 19, N^1-methyl-N^1-((3-(1-methyl-1H-indazol-6-yl)-1H-pyrazol-4-yl)methyl)ethane-1,2-diamine] as the compound, how does the pIC50 read?
A: 6.00 to 7.00

Q: `CN(CCN)Cc1c[nH]nc1-c1ccc2ncnn2c1` [Compound 20] was tested. Which pIC50 did it give?
A: 5.52 to 6.00

Q: With `CN(CCN)Cc1c[nH]nc1-c1ccc2nccn2c1` [Compound 21, N^1-((3-(imidazo[1,2-a]pyridin-6-yl)-1H-pyrazol-4-yl)methyl)-N^1-methylethane-1,2-diamine] as the compound, how does the pIC50 read?
A: 6.00 to 7.00

Q: How did the pIC50 turn out when `CC(C)n1cc(-c2n[nH]cc2CN(C)CCN)cn1` [Compound 22] was run?
A: 6.00 to 7.00

Q: How did the pIC50 turn out when `CC(C)Cn1cc(-c2n[nH]cc2CN(C)CCN)cn1` [Compound 23, N^1-((2′-isobutyl-3,4′-bi(1H-pyrazol)-4-yl)methyl)-N^1-methylethane-1,2-diamine] was run?
A: 6.00 to 7.00

Q: `CN(CCN)Cc1c[nH]nc1-c1cnn(Cc2ccccc2)c1` [Compound 24, N^1-((1′-benzyl-3,4′-bi(1H-pyrazol)-4-yl)methyl)-N^1-methylethane-1,2-diamine] was tested. Which pIC50 did it give?
A: 6.00 to 7.00

Q: With `CN(CCN)Cc1c[nH]nc1-c1ccc2[nH]ncc2c1` [Compound 27, N^1-((3-(1H-indazol-5-yl)-1H-pyrazol-4-yl)methyl)-N^1-methylethane-1,2-diamine] as the compound, how does the pIC50 read?
A: 6.00 to 7.00

Q: With `CN(CCN)Cc1c[nH]nc1-c1cnc(C2CC2)nc1` [Compound 28] as the compound, how does the pIC50 read?
A: 5.52 to 6.00

Q: How did the pIC50 turn out when `CN(CCN)Cc1c[nH]nc1-c1ccc[nH]1` [Compound 29] was run?
A: 5.00 to 5.52

Q: With `CN(CCN)Cc1c[nH]nc1-c1cccc2[nH]ncc12` [Compound 30] as the compound, how does the pIC50 read?
A: 5.00 to 5.52
